According to patent US20100041897A1, “Process for preparing a crystalline form of candesartan cilexetil” (CHEMO IBERICA, S.A., priority 2006, published 2010):
“Also recorded” adds a separate entry of the source. Each block holds one compound with its values, some of them ahead of it.

Tests used:
[1] = Accelerated stability test at 80° C., impurities determined by HPLC; type: physicochemical; conditions: product of crystallization assay from acetone/water 3:1 v/v, 80° C. for 5 to 9 days
[2] = as above; type: physicochemical; conditions: for stability in accelerated stability test (in words): 80° C.
Protocol: In order to determine the influence of Form II on the stability of candesartan cilexetil Form I, samples with different proportions of Form II were prepared and subjected to an accelerated stability test at a temperature of 80° C. for different periods of time up to 9 days. Once the time period elapsed, the samples were analyzed by HPLC for the determination of the content of impurities, according to the method described in the Examples. Samples of candesartan cilexetil Form I containing different proportions of Form II were prepared from the products obtained in Example 2 and Preparative Example 1. The samples were exposed to an accelerated stability test at a temperature of 80° C. for different time periods up to 9 days. Once the time period has elapsed, the samples were analyzed by HPLC for the determination of the content of impurities. Impurities corresponding to the following retention times: 8.3, 10.4, 12.5, 14.1 and 16.4 minutes were identified in the HPLC chromatograms. The HPLC analysis of impurities was carried out in a HPLC system with UV detector (Waters Alliance), with a L1-type column according to US Pharmacopeia nomenclature, at a temperature of 30° C., with a flow rate of 1 ml/min, an injection volume of 10 μl, and an UV detector at 210 nm. The mobile phase was constituted by a mixture of solution A (v/v) (aqueous 0.1% v/v trifluoroacetic acid buffer) and acetonitrile. During the analysis the mobile phase contained 45% of Solution A and 55% of acetonitrile, except for the period comprised from minute 15 to minute 25 wherein a mixture of 5% Solution A and 95% acetonitrile was used. The sample was prepared dissolving 0.2 mg of the sample in 1 ml of mobile phase. The sum of the impurities refers to the sum of areas recorded in the HPLC chromatogram corresponding to the degradation impurities detected at the retention times above specified.

[3] = solid sample kept at 80° C. for 7 days
[4] = solid sample kept at 80° C. for 9 days

Compound: CCOc1nc2cccc(C(=O)OC(C)OC(=O)OC3CCCCC3)c2n1Cc1ccc(-c2ccccc2-c2nnn[nH]2)cc1 (centres unmarked) [Assay 3, candesartan cilexetil]
Stability ([1]; listed as 3): Poor

Compound: CCOc1nc2cccc(C(=O)OC(C)OC(=O)OC3CCCCC3)c2n1Cc1ccc(-c2ccccc2-c2nnn[nH]2)cc1 (centres unmarked) [Assay 4, candesartan cilexetil]
Stability ([1]; listed as 4): Good

Compound: CCOc1nc2cccc(C(=O)OC(C)OC(=O)OC3CCCCC3)c2n1Cc1ccc(-c2ccccc2-c2nnn[nH]2)cc1 (centres unmarked) [Comparative Example 2, candesartan cilexetil]
stability in accelerated stability test (in words) [2]: deficient stability

Compound: CCOc1nc2cccc(C(=O)OC(C)OC(=O)OC3CCCCC3)c2n1Cc1ccc(-c2ccccc2-c2nnn[nH]2)cc1 (centres unmarked) [Example 1, candesartan cilexetil]
Stability [1]: Poor

Compound: CCOc1nc2cccc(C(=O)OC(C)OC(=O)OC3CCCCC3)c2n1Cc1ccc(-c2ccccc2-c2nnn[nH]2)cc1 (centres unmarked) [Form I (Example 2), 2-ethoxy-1-[[2′-(1H-tetrazol-5-yl)[1,1′-biphenyl]-4-yl]methyl]-1H-benzimidazole-7-carboxylic acid, 1-[[(cyclohexyloxy)carbonyl]oxy]ethyl ester]
stability in accelerated stability test (in words) ([2]; listed as candesartan cilexetil Form I): good stability; also recorded: high stability
Sum of impurities (% HPLC area) [2, 3]: 0.34 % HPLC area

Compound: CCOc1nc2cccc(C(=O)OC(C)OC(=O)OC3CCCCC3)c2n1Cc1ccc(-c2ccccc2-c2nnn[nH]2)cc1 (centres unmarked) [Form I + 0.1% of Form II, candesartan cilexetil]
Sum of impurities (% HPLC area) [2, 4]: 0.96 % HPLC area

Compound: CCOc1nc2cccc(C(=O)OC(C)OC(=O)OC3CCCCC3)c2n1Cc1ccc(-c2ccccc2-c2nnn[nH]2)cc1 (centres unmarked) [Form I + 0.3% of Form II, candesartan cilexetil]
Sum of impurities (% HPLC area) [2, 4]: 1.21 % HPLC area

Compound: CCOc1nc2cccc(C(=O)OC(C)OC(=O)OC3CCCCC3)c2n1Cc1ccc(-c2ccccc2-c2nnn[nH]2)cc1 (centres unmarked) [Form I + 0.5% of Form II, candesartan cilexetil]
Sum of impurities (% HPLC area) [2, 3]: 1.46 % HPLC area

Compound: CCOc1nc2cccc(C(=O)OC(C)OC(=O)OC3CCCCC3)c2n1Cc1ccc(-c2ccccc2-c2nnn[nH]2)cc1 (centres unmarked) [Form I + 1.0% of Form II, candesartan cilexetil]
Sum of impurities (% HPLC area) [2, 3]: 2.00 % HPLC area

The next lines start with results.

Sum of impurities (% HPLC area) [2, 3]: 2.88 % HPLC area
Compound: CCOc1nc2cccc(C(=O)OC(C)OC(=O)OC3CCCCC3)c2n1Cc1ccc(-c2ccccc2-c2nnn[nH]2)cc1 (centres unmarked) [Form I + 2.0% of Form II, candesartan cilexetil]

Sum of impurities (% HPLC area) [2, 3]: 6.65 % HPLC area
Compound: CCOc1nc2cccc(C(=O)OC(C)OC(=O)OC3CCCCC3)c2n1Cc1ccc(-c2ccccc2-c2nnn[nH]2)cc1 (centres unmarked) [Form I + 5.0% of Form II, candesartan cilexetil]

Sum of impurities (% HPLC area) [2, 3]: 12.78 % HPLC area
Compound: CCOc1nc2cccc(C(=O)OC(C)OC(=O)OC3CCCCC3)c2n1Cc1ccc(-c2ccccc2-c2nnn[nH]2)cc1 (centres unmarked) [Form I + 10.0% of Form II, candesartan cilexetil]

Sum of impurities (% HPLC area) [2, 3]: 23.20 % HPLC area
Compound: CCOc1nc2cccc(C(=O)OC(C)OC(=O)OC3CCCCC3)c2n1Cc1ccc(-c2ccccc2-c2nnn[nH]2)cc1 (centres unmarked) [Form I + 20.0% of Form II, candesartan cilexetil]

content of impurities ([2]; 80° C. for 5 days, calculated from the areas of the HPLC chromatogram): 60 % (w/w)
Sum of impurities (% HPLC area) ([2]; solid sample kept at 80° C. for 5 days): 59.98 % HPLC area
Compound: CCOc1nc2cccc(C(=O)OC(C)OC(=O)OC3CCCCC3)c2n1Cc1ccc(-c2ccccc2-c2nnn[nH]2)cc1 (centres unmarked) [Form II (Preparative Example 1), 2-ethoxy-1-[[2′-(1H-tetrazol-5-yl)[1,1′-biphenyl]-4-yl]methyl]-1H-benzimidazole-7-carboxylic acid, 1-[[(cyclohexyloxy)carbonyl]oxy]ethyl ester, reference compound]
stability in accelerated stability test (in words) ([2]; listed as Form II): unstable; also recorded: high instability
